These compounds were tested against Tubulin (Sus scrofa, UniProt P02554+P02550) (assay: Inhibition of porcine brain tubulin polymerization assessed as decrease in fluorescence intensity measured every 60 sec for 90 mins in presence of GTP by DAPI staining based fluorescence assay). Settings: not given.

IC50 | SMILES
1030 nM | COc1ccccc1NC(=O)c1nc(-c2cc(OC)c(OC)c(OC)c2)n(-c2ccc(F)c(Cl)c2)n1
760 nM | COc1ccc(-n2nc(C(=O)Nc3ccc(F)c(F)c3F)nc2-c2cc(OC)c(OC)c(OC)c2)cc1Cl
700 nM | COc1ccc(-n2nc(C(=O)Nc3ccc(F)c(Cl)c3)nc2-c2cc(OC)c(OC)c(OC)c2)cc1Cl

The compounds below were run on HepG2 (assay: Antiproliferative activity against human HepG2 cells assessed as cell growth inhibition measured after 48 hrs by MTT assay). Settings: HepG2, 48 h.
Type: functional, cell-based

IC50 | SMILES
710 nM | COc1cc(-c2nc(C(=O)Nc3cc(F)cc(F)c3)nn2-c2ccc(F)c(Cl)c2)cc(OC)c1OC
2140 nM | COc1ccc(NC(=O)c2nc(-c3cc(OC)c(OC)c(OC)c3)n(-c3ccc(F)c(Cl)c3)n2)cc1Cl
2230 nM | COc1cc(-c2nc(C(=O)Nc3ccccc3)nn2-c2ccc(F)c(Cl)c2)cc(OC)c1OC
520 nM | COc1cc(-c2nc(C(=O)Nc3ccc(F)cc3)nn2-c2ccc(F)c(Cl)c2)cc(OC)c1OC
7110 nM | COc1ccc(-n2nc(C(=O)Nc3ccc(OC(F)(F)F)cc3)nc2-c2cc(OC)c(OC)c(OC)c2)cc1Cl
1490 nM | CCOc1ccc(NC(=O)c2nc(-c3cc(OC)c(OC)c(OC)c3)n(-c3ccc(F)c(Cl)c3)n2)cc1
350 nM | COc1ccccc1NC(=O)c1nc(-c2cc(OC)c(OC)c(OC)c2)n(-c2ccc(F)c(Cl)c2)n1
40 nM | COc1ccc(-n2nc(C(=O)Nc3ccc(F)c(F)c3F)nc2-c2cc(OC)c(OC)c(OC)c2)cc1Cl
680 nM | COc1ccc(-n2nc(C(=O)Nc3ccc(F)c(Cl)c3)nc2-c2cc(OC)c(OC)c(OC)c2)cc1Cl

These compounds were tested on HL-60 (assay: Antiproliferative activity against human HL60 cells assessed as cell growth inhibition measured after 48 hrs by MTT assay). Settings: HL-60, 48 h.
Type: functional, cell-based

IC50 | SMILES
3750 nM | COc1cc(-c2nc(C(=O)Nc3cc(F)cc(F)c3)nn2-c2ccc(F)c(Cl)c2)cc(OC)c1OC
700 nM | COc1ccc(NC(=O)c2nc(-c3cc(OC)c(OC)c(OC)c3)n(-c3ccc(F)c(Cl)c3)n2)cc1Cl
1000 nM | COc1cc(-c2nc(C(=O)Nc3ccccc3)nn2-c2ccc(F)c(Cl)c2)cc(OC)c1OC
300 nM | COc1cc(-c2nc(C(=O)Nc3ccc(F)cc3)nn2-c2ccc(F)c(Cl)c2)cc(OC)c1OC
810 nM | COc1ccc(-n2nc(C(=O)Nc3ccc(OC(F)(F)F)cc3)nc2-c2cc(OC)c(OC)c(OC)c2)cc1Cl
600 nM | CCOc1ccc(NC(=O)c2nc(-c3cc(OC)c(OC)c(OC)c3)n(-c3ccc(F)c(Cl)c3)n2)cc1
4 nM | COc1ccccc1NC(=O)c1nc(-c2cc(OC)c(OC)c(OC)c2)n(-c2ccc(F)c(Cl)c2)n1
2660 nM | COc1ccc(-n2nc(C(=O)Nc3ccc(F)c(F)c3F)nc2-c2cc(OC)c(OC)c(OC)c2)cc1Cl
230 nM | COc1ccc(-n2nc(C(=O)Nc3ccc(F)c(Cl)c3)nc2-c2cc(OC)c(OC)c(OC)c2)cc1Cl

The compounds below were run on MCF7 (assay: Antiproliferative activity against human MCF7 cells assessed as cell growth inhibition measured after 48 hrs by MTT assay). Settings: MCF7, 48 h.
Type: functional, cell-based

IC50 | SMILES
4910 nM | COc1cc(-c2nc(C(=O)Nc3cc(F)cc(F)c3)nn2-c2ccc(F)c(Cl)c2)cc(OC)c1OC
1010 nM | COc1ccc(NC(=O)c2nc(-c3cc(OC)c(OC)c(OC)c3)n(-c3ccc(F)c(Cl)c3)n2)cc1Cl
170 nM | COc1cc(-c2nc(C(=O)Nc3ccccc3)nn2-c2ccc(F)c(Cl)c2)cc(OC)c1OC
180 nM | COc1cc(-c2nc(C(=O)Nc3ccc(F)cc3)nn2-c2ccc(F)c(Cl)c2)cc(OC)c1OC
39 nM | COc1ccc(-n2nc(C(=O)Nc3ccc(OC(F)(F)F)cc3)nc2-c2cc(OC)c(OC)c(OC)c2)cc1Cl
520 nM | CCOc1ccc(NC(=O)c2nc(-c3cc(OC)c(OC)c(OC)c3)n(-c3ccc(F)c(Cl)c3)n2)cc1
1510 nM | COc1ccccc1NC(=O)c1nc(-c2cc(OC)c(OC)c(OC)c2)n(-c2ccc(F)c(Cl)c2)n1
2100 nM | COc1ccc(-n2nc(C(=O)Nc3ccc(F)c(F)c3F)nc2-c2cc(OC)c(OC)c(OC)c2)cc1Cl
30 nM | COc1ccc(-n2nc(C(=O)Nc3ccc(F)c(Cl)c3)nc2-c2cc(OC)c(OC)c(OC)c2)cc1Cl

Each compound was assayed against Tubulin beta (Homo sapiens) (UniProt P68371+Q9H4B7+Q13509+P04350+Q3ZCM7+P07437+Q13885+Q9BVA1+Q9BUF5+A6NNZ2) (assay: Inhibition of tubulin beta polymerization in human HepG2 cells at IC50 using TMB substrate preincubated for 2 hrs followed by substrate addition measured after 15 to 20 mins in presence of GTP by ELISA relative to control). Settings: not given.
Type: cell-based

inhibition | SMILES
62% | COc1ccccc1NC(=O)c1nc(-c2cc(OC)c(OC)c(OC)c2)n(-c2ccc(F)c(Cl)c2)n1
82% | COc1ccc(-n2nc(C(=O)Nc3ccc(F)c(F)c3F)nc2-c2cc(OC)c(OC)c(OC)c2)cc1Cl
73% | COc1ccc(-n2nc(C(=O)Nc3ccc(F)c(Cl)c3)nc2-c2cc(OC)c(OC)c(OC)c2)cc1Cl

These compounds were tested against Tubulin (Bos taurus, UniProt Q6B856+Q862L2+Q862F3) (assay: Inhibition of [3H] colchicine binding to bovine brain tubulin incubated for 30 mins by scintillation proximity assay). Settings: not given.

IC50 | Kd | Ki | SMILES
3580 nM | 540 nM | 260 nM | COc1ccccc1NC(=O)c1nc(-c2cc(OC)c(OC)c(OC)c2)n(-c2ccc(F)c(Cl)c2)n1
2110 nM | 320 nM | 150 nM | COc1ccc(-n2nc(C(=O)Nc3ccc(F)c(Cl)c3)nc2-c2cc(OC)c(OC)c(OC)c2)cc1Cl

What follows are compounds tested on HepG2 (assay: Cell cycle arrest in human HepG2 cells assessed as accumulation at G0/G1 phase at IC50 concentration by DNase/propidium iodide staining based flow cytometry analysis (reference value: 57.43 %)). Settings: not given.
Type: functional

SMILES | Activity
COc1ccccc1NC(=O)c1nc(-c2cc(OC)c(OC)c(OC)c2)n(-c2ccc(F)c(Cl)c2)n1 | 34.77%
COc1ccc(-n2nc(C(=O)Nc3ccc(F)c(F)c3F)nc2-c2cc(OC)c(OC)c(OC)c2)cc1Cl | 26.31%

Each compound was assayed on HepG2 (assay: Cell cycle arrest in human HepG2 cells assessed as accumulation at S phase at IC50 concentration by DNase/propidium iodide staining based flow cytometry analysis (reference value: 32.51 %)). Settings: not given.
Type: functional

SMILES | Activity
COc1ccccc1NC(=O)c1nc(-c2cc(OC)c(OC)c(OC)c2)n(-c2ccc(F)c(Cl)c2)n1 | 24.67%
COc1ccc(-n2nc(C(=O)Nc3ccc(F)c(F)c3F)nc2-c2cc(OC)c(OC)c(OC)c2)cc1Cl | 18.61%

Each compound was assayed on HepG2 (assay: Cell cycle arrest in human HepG2 cells assessed as accumulation at G2/M phase at IC50 concentration by DNase/propidium iodide staining based flow cytometry analysis (reference value: 10.06 %)). Settings: not given.
Type: functional

SMILES | Activity
COc1ccccc1NC(=O)c1nc(-c2cc(OC)c(OC)c(OC)c2)n(-c2ccc(F)c(Cl)c2)n1 | 40.56%
COc1ccc(-n2nc(C(=O)Nc3ccc(F)c(F)c3F)nc2-c2cc(OC)c(OC)c(OC)c2)cc1Cl | 55.08%

The compounds below were run on HepG2 (assay: Cell cycle arrest in human HepG2 cells assessed as accumulation at pre-G1 phase at IC50 concentration by DNase/propidium iodide staining based flow cytometry analysis (reference value: 1.59 %)). Settings: not given.
Type: functional

SMILES | Activity
COc1ccccc1NC(=O)c1nc(-c2cc(OC)c(OC)c(OC)c2)n(-c2ccc(F)c(Cl)c2)n1 | 19.22%
COc1ccc(-n2nc(C(=O)Nc3ccc(F)c(F)c3F)nc2-c2cc(OC)c(OC)c(OC)c2)cc1Cl | 31.04%

Each compound was assayed on HepG2 (assay: Induction of apoptosis in human HepG2 cells assessed as viable cells at IC50 concentration by annexinV-FITC/propidium iodide staining based flow cytometry (reference value: 98.41 %)). Settings: not given.
Type: functional

SMILES | Activity
COc1ccccc1NC(=O)c1nc(-c2cc(OC)c(OC)c(OC)c2)n(-c2ccc(F)c(Cl)c2)n1 | 80.78%
COc1ccc(-n2nc(C(=O)Nc3ccc(F)c(F)c3F)nc2-c2cc(OC)c(OC)c(OC)c2)cc1Cl | 68.96%

These compounds were tested on HepG2 (assay: Induction of apoptosis in human HepG2 cells assessed as early apoptotic cells at IC50 concentration by annexinV-FITC/propidium iodide staining based flow cytometry (reference value: 0.69 %)). Settings: not given.
Type: functional

SMILES | Activity
COc1ccccc1NC(=O)c1nc(-c2cc(OC)c(OC)c(OC)c2)n(-c2ccc(F)c(Cl)c2)n1 | 5.24%
COc1ccc(-n2nc(C(=O)Nc3ccc(F)c(F)c3F)nc2-c2cc(OC)c(OC)c(OC)c2)cc1Cl | 6.06%

These compounds were tested on HepG2 (assay: Induction of apoptosis in human HepG2 cells assessed as late apoptotic cells at IC50 concentration by annexinV-FITC/propidium iodide staining based flow cytometry (reference value: 0.38 %)). Settings: not given.
Type: functional

SMILES | Activity
COc1ccccc1NC(=O)c1nc(-c2cc(OC)c(OC)c(OC)c2)n(-c2ccc(F)c(Cl)c2)n1 | 11.32%
COc1ccc(-n2nc(C(=O)Nc3ccc(F)c(F)c3F)nc2-c2cc(OC)c(OC)c(OC)c2)cc1Cl | 22.2%

Each compound was assayed on HepG2 (assay: Induction of apoptosis in human HepG2 cells assessed as necrotic cells at IC50 concentration by annexinV-FITC/propidium iodide staining based flow cytometry (reference value: […])). Settings: not given.
Type: functional

SMILES | Activity
COc1ccccc1NC(=O)c1nc(-c2cc(OC)c(OC)c(OC)c2)n(-c2ccc(F)c(Cl)c2)n1 | 2.66%
COc1ccc(-n2nc(C(=O)Nc3ccc(F)c(F)c3F)nc2-c2cc(OC)c(OC)c(OC)c2)cc1Cl | 2.78%

The compounds below were run on HepG2 (assay: Induction of apoptosis in human HepG2 cells assessed as activation of caspase 3 measured after 0.5 to 1 hrs by fluorescence assay relative to control). Settings: not given.
Type: functional

SMILES | fold change (FC)
COc1ccccc1NC(=O)c1nc(-c2cc(OC)c(OC)c(OC)c2)n(-c2ccc(F)c(Cl)c2)n1 | 7
COc1ccc(-n2nc(C(=O)Nc3ccc(F)c(F)c3F)nc2-c2cc(OC)c(OC)c(OC)c2)cc1Cl | 9
